Results reported in article PMC9774939, “Optimization of Pyrazole Compounds as Antibiotic Adjuvants Active against Colistin- and Carbapenem-Resistant Acinetobacter baumannii” (Antibiotics, 2022).
Like-named read-outs stand apart in the source and are kept apart here.

Legend:
E. coli CCUG^T = test: Chequerboard analysis with colistin; type: cell-based, Escherichia coli; conditions: combination with colistin; synergy when ≤0.5
Procedure: (§1) The chequerboard analysis is a two-dimensional array in which individual microplate wells contain a unique combination of the concentrations of the tested compound and colistin. Tested concentrations of the compound ranged from 64 to 0.06 μg/mL along the x-axis, whereas polymyxin E1 concentrations ranged from 2 to 0.03 μg/mL (or 32–0.5 μg/mL when polymyxin E1-resistant clinical isolates were used) and varied along the y-axis. Determining the fractional inhibitory concentration (FIC) of both compounds and computing the average FIC index allowed us to determine whether a synergistic, additive, or antagonistic activity between the tested compounds could be observed. A synergistic activity occurred when the average FIC index was equal to or less than 0.5 [21, 27].

K. pneumoniae ATCC 13833 = test: Chequerboard analysis with colistin; type: cell-based, Klebsiella pneumoniae; conditions: combination with colistin; synergy when ≤0.5
Procedure: as §1

K. pneumoniae SI-004Bo = test: Chequerboard analysis with colistin; type: cell-based, Klebsiella pneumoniae; conditions: combination with colistin; pandrug-resistant, colistin-resistant isolate
From the text: (§2) Carbapenem-resistant, colistin-resistant, and XDR clinical isolates were kindly provided by Prof. Gian Maria Rossolini (University of Florence, Italy). Klebsiella pneumoniae SI-004Bo is a KPC-producing, pandrug-resistant isolate (KKBO-4 [17]) selected in vivo during colistin therapy (colistin resistance mechanism, IS-mediated insertional inactivation of mgrB). Acinetobacter baumannii N50 is an OXA-24-producing clinical isolate resistant to all β-lactams, aminoglycosides, and fluoroquinolones.
as §1

A. baumannii ATCC 17978 = test: Chequerboard analysis with colistin; type: cell-based, Acinetobacter baumannii; conditions: combination with colistin; synergy when ≤0.5
Procedure: as §1

A. baumannii N50 = test: Chequerboard analysis with colistin; type: cell-based, Acinetobacter baumannii; conditions: combination with colistin; MDR, colistin-resistant isolate
From the text: as §2, §1

Hemolytic activity = type: cell-based; conditions: 0.025–10 μg of compound
Procedure: The hemolytic activity of compounds 1, 2, 8, 9, 45, and 49 (0.025–10 μg) was investigated using the method described by Bechlars et al.. Triton X-100 was used as the hemolysis control and DMSO as the negative control.

[1] = system: eight reference strains, Gram-positive and Gram-negative; set-up: method as in PMID 32435403; conditions: parent compound; cited from earlier work
Escherichia coli CCUG^T [2] = system: Escherichia coli CCUG^T; set-up: method as in PMID 32435403; conditions: parent compounds, cited from earlier work; for MAC Eco: in the presence of 0.5 × MIC colistin; for MIC/MAC Ratio Eco: minimal ratio
[3] = system: Klebsiella pneumoniae ATCC 13833; set-up: method as in PMID 32435403; conditions: parent compounds, cited from earlier work; for MAC Kpn: in the presence of 0.5 × MIC colistin; for MIC/MAC Ratio Kpn: minimal ratio
[4] = system: Acinetobacter baumannii ATCC 17978; set-up: method as in PMID 32435403; conditions: parent compounds, cited from earlier work; for MAC Aba: in the presence of 0.5 × MIC colistin; for MIC/MAC Ratio Aba: minimal ratio
Escherichia coli CCUG^T [5] = test: MAC determination in the presence of subinhibitory colistin; type: cell-based; conditions: for MAC Eco: in the presence of 0.5 × MIC colistin; for MIC/MAC Ratio Eco: minimal ratio of MIC of compound alone to MAC with 0.5 × MIC colistin
Procedure: (§3) The minimum inhibitory concentration (MIC) and minimum bactericidal concentration (MBC) of the compounds were determined in triplicate using Mueller–Hinton broth and a bacterial inoculum of 5 × 10^5 CFU/mL, as recommended by the CLSI [26]. The minimum antibacterial concentration (MAC) of the compounds was determined in the presence of a fixed and subinhibitory concentration of colistin (as mentioned above).

[6] = system: Klebsiella pneumoniae ATCC 13833; test: as above; type: cell-based; set-up: key to MAC Kpn: -: No synergistic activity; conditions: for MAC Kpn: in the presence of 0.5 × MIC colistin; for MIC/MAC Ratio Kpn: minimal ratio of MIC of compound alone to MAC with 0.5 × MIC colistin
Procedure: as §3

[7] = system: Acinetobacter baumannii ATCC 17978; test: as above; type: cell-based; conditions: for MAC Aba: in the presence of 0.5 × MIC colistin; for MIC/MAC Ratio Aba: minimal ratio of MIC of compound alone to MAC with 0.5 × MIC colistin
Procedure: as §3

[8] = Membrane integrity assay (LDH release); type: cell-based; conditions: human, HeLa cells; tested alone, 24 h exposure; read-out: IC50 cytotoxicity (membrane-damaging activity, LDH release)
Procedure: The potential cytotoxic activity of compounds was evaluated using the commercially available integrity assay (CytoTox 96® non-radioactive cytotoxicity assay, Promega). The compounds were tested for their ability to induce the lysis of HeLa cells by measuring the release of lactate dehydrogenase (LDH) after incubating the HeLa cell cultures (20,000 cells/well) for 24 h (37 °C, 5% CO2) in DMEM (Dulbecco’s Modified Eagle Medium) supplemented with 10% fetal bovine serum, 4.5 mg/mL glucose, and 2 mM L-glutamine in the absence and presence of varying concentrations of the compounds (up to 256 µg/mL). Further controls included samples containing the medium only or in which cell lysis was induced by the addition of 9% Triton X-100 (maximum LDH release control). The percentage of cytotoxicity was computed as 100 × (sample LDH release)/(maximum LDH release). The variation of the percentage of cytotoxicity allowed us to compute an IC50 value (compound concentration inducing 50% cytotoxicity).

[9] = system: Acinetobacter baumannii N50; test: MBC determination in the presence of colistin; type: cell-based; conditions: in the presence of 2 µg/mL of colistin
Procedure: as §3

HeLa cells = test: Cell viability and proliferation assay (RealTime-Glo MT); type: cell-based; conditions: 16 µg/mL of compound, up to 72 h
Procedure: The cytotoxicity of the compounds was also evaluated by measuring the number of viable cells in the culture with respect to the control culture (cells treated with DMSO only) using the RealTime-Glo™ MT Cell Viability Assay in the presence of varying concentrations of the compound. The assay is a nonlytic homogeneous, bioluminescent method that can be used to measure cell viability/proliferation in real time using NanoLuc® luciferase and a cell-permeant prosubstrate (MT Cell Viability Substrate). […]

[10] = system: Acinetobacter baumannii N50; test: Time-kill curve analysis; type: cell-based
Procedure: The time-dependent bacterial killing of colistin, compound 9, or a combination thereof was investigated using established methods. Briefly, a culture medium containing a starting inoculum of 5.0 × 10^6 CFU/mL of Acinetobacter baumannii N50 clinical isolate was incubated aerobically at 35 °C under orbital agitation (200 rpm) in Mueller–Hinton broth, in the absence (growth control) or presence of either 2 μg/mL of colistin (a concentration equivalent to the susceptibility breakpoint), 8 µg/mL of compound 9, or both. The bacterial count (expressed in CFU/mL) in the control and antibiotic-containing media was determined every hour for up to 6 h of incubation via serial 10-fold dilution and direct plating of 0.1 mL of the sample on the Mueller–Hinton Agar medium (without antibiotic), which was incubated for 24 h at 35 °C.

Row | Molecule | Average FIC Index (E. coli CCUG^T) | Average FIC Index (K. pneumoniae ATCC 13833) | Average FIC Index (K. pneumoniae SI-004Bo) | Average FIC Index (A. baumannii ATCC 17978) | Average FIC Index (A. baumannii N50) | hemolytic activity (Hemolytic activity) | MAC Eco (Escherichia coli CCUG^T [5]) [µg/mL] | MIC/MAC Ratio Eco (Escherichia coli CCUG^T [5]) | MAC Kpn [6] | MAC Aba [7] [µg/mL] | MIC/MAC Ratio Aba [7] | MBC [9] [µg/mL] | melting point [°C] | MIC/MAC Ratio Kpn [6] | other results
1 | O=C(NCc1ccc2c(c1)OCO2)c1cnn(-c2ccccc2)c1-n1cccc1 [Compound 1] | 0.5 | 0.5 | 1 | 0.38 | 0.5 | no hemolytic activity could be observed |  |  |  |  |  |  |  |  | direct antibacterial activity [1]: no direct antibacterial activity was observed; MAC Eco (Escherichia coli CCUG^T [2]): 64 µg/mL; MIC/MAC Ratio Eco (Escherichia coli CCUG^T [2]): 8; MAC Kpn [3]: 64 µg/mL; MIC/MAC Ratio Kpn [3]: 8; MAC Aba [4]: 32 µg/mL; MIC/MAC Ratio Aba [4]: 16
2 | Cc1c(C(=O)N(C)CCN(C)C)nn(-c2ccc(Cl)cc2)c1-n1cccc1 [Compound 2] | 0.31 | 0.5 | 1 | 0.39 | 0.4 | no hemolytic activity could be observed |  |  |  |  |  |  |  |  | MAC Eco (Escherichia coli CCUG^T [2]): 64 µg/mL; MIC/MAC Ratio Eco (Escherichia coli CCUG^T [2]): 8; MAC Kpn [3]: 32 µg/mL; MIC/MAC Ratio Kpn [3]: 16; MAC Aba [4]: 16 µg/mL; MIC/MAC Ratio Aba [4]: 32
3 | O=C(NC12CC3CC(CC(C3)C1)C2)c1cnn(-c2ccccc2)c1-n1cccc1 [Compound 8, N-(Adamantan-1-yl)-1-phenyl-5-(1H-pyrrol-1-yl)-1H-pyrazole-4-carboxamide] | 0.38 | 0.5 | 1 | 0.31 | 0.24 | no hemolytic activity could be observed | 32 | 16 | - ^a | 4 | 128 | > 64 | 167 to 169 |  | IC50 at 24 h [8]: > 256 µg/mL
4 | CC(C)(C)OC(=O)[C@H](Cc1ccccc1)NC(=O)c1cnn(-c2ccccc2)c1-n1cccc1 [Compound 9, tert-Butyl (S)-3-Phenyl-2-[[[1-phenyl-5-(1H-pyrrol-1-yl)-1H-pyrazol-4-yl]carbonyl]amino]propanoate] | 0.33 | 0.32 | 1 | 0.34 | 0.23 | no hemolytic activity could be observed | 8 | 64 | 8 µg/mL | 4 | 128 | > 64 |  | 64 | proliferation of HeLa cells (HeLa cells): not significantly altered; reduction of bacterial population (time-kill) ([10]; 2 µg/mL of colistin and 8 µg/mL of 9, within 5 h): 4 log10; antibacterial activity alone (time-kill) ([10]; 8 µg/mL of 9 alone): does not exhibit antibacterial activity
5 | Cc1c(C(=O)Nc2ccc(O)cc2)nn(-c2ccc(Cl)cc2)c1-n1cccc1 [Compound 45, 1-(4-Chlorophenyl)-N-(4-hydroxyphenyl)-4-methyl-5-(1H-pyrrol-1-yl)-1H-pyrazole-3-carboxamide] | 0.31 | 0.31 | 1 | 0.31 | 0.26 | no hemolytic activity could be observed | 4 | 128 | 4 µg/mL | 8 | 64 | > 64 | 226 to 228 | 128 | 
6 | Cc1c(C(=O)Nc2ccc(S(C)(=N)=O)cc2)nn(-c2ccc(Cl)cc2)c1-n1cccc1 (stereo not drawn) [Compound 49, 1-(4-Chlorophenyl)-4-methyl-N-[4-(S-methylsulfonimidoyl)phenyl]-5-(1H-pyrrol-1-yl)-1H-pyrazole-3-carboxamide] | 0.32 | 0.39 | 1 | 0.38 | 0.31 | no hemolytic activity could be observed | 8 | 64 | 4 µg/mL | 8 | 64 | > 64 | 207 to 210 | 128 | 
7 | Colistin [reference compound] |  |  |  |  |  |  |  |  |  |  |  |  |  |  | bactericidal effect (time-kill) ([10]; colistin alone at 2 µg/mL): not expectedly able to show any bactericidal effect
